The target of assay [1] is BCL-2 (binding to BAK peptide) (Homo sapiens, UniProt P10415). Briefly: SPR (Biacore) solution inhibition assay, BCL-2 binding to immobilized BAK peptide. Particulars: biotinylated BAK peptide surface, 56 nM BCL-2, 25° C.; range = high and low IC50 values from multiple experiments; read-out: BCL2_SPR IC50 BAK. In a few lines: (§1)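 Compounds (6-point threefold series, 16 μM to 0.004 nM) preincubated 1 h with 56 nM BCL-2, then injected 60 s over biotinylated peptide captured on streptavidin chips at 25° C. Running buffer: 10 mM HEPES pH 7.4, 150 mM NaCl, 1.25 mM DTT, 3% DMSO, 0.05% polysorbate 20. % inhibition versus BCL-2-only binding gave IC50.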

Assay [2] has as its target BCL-2 (binding to BAD peptide) (Homo sapiens, UniProt P10415). Briefly: SPR (Biacore) solution inhibition assay, BCL-2 binding to immobilized BAD peptide. Particulars: biotinylated BAD peptide surface, 56 nM BCL-2, 25° C.; range = high and low IC50 values from multiple experiments; read-out: BCL2_SPR IC50 BAD. In a few lines: as §1
For orientation: Surface plasmon resonance follows binding to a sensor surface in real time, without labels.

Several values for one entry are separate records, joined by “and”; a condition that tells them apart may be missing. Equal values may be shown once.

Usually IC50 stands for the concentration that inhibits the measured activity by half.

Sequence of BCL-2 (binding to BAK peptide) (P10415 whole entry): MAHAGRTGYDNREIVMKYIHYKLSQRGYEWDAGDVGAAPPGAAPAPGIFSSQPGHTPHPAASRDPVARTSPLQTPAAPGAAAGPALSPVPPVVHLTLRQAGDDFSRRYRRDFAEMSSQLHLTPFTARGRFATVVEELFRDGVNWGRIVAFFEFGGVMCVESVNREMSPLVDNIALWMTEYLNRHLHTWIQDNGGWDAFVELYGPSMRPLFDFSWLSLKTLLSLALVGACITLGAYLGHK
Sequence of BCL-2 (binding to BAD peptide) (P10415 whole entry): as above

Turning to `CCCCN(CCCC)C(=O)c1cc(C)n(-c2ccc(NC(=O)[C@@H]3COc4ccccc4O3)cc2C(=O)N2Cc3ccccc3C[C@H]2CO)n1` [Example 65], the IC50 in assay [1] was 137 to 140 nM; in assay [2], 172 to 173 nM.
The corresponding values for `CCCCN(CCCC)C(=O)c1cc(C)n(-c2ccc(NC(=O)c3cc(=O)c4cc(C)ccc4o3)cc2C(=O)N2Cc3ccccc3C[C@H]2CO)n1` [Example 59] are 395 to 410 nM and 531 to 537 nM.
The corresponding values for `CCCCN(CCCC)C(=O)c1cc(C)n(-c2ccc(NC(=O)CC(CC(=O)O)c3ccccc3)cc2C(=O)N2Cc3ccccc3C[C@H]2CO)n1` (stereo partly drawn) [Example 16] are 95.7 to 103 nM and 119 to 126 nM.
On the same counts, the results for `CCCCN(CCCC)C(=O)c1cc(C)n(-c2ccc(NC(=O)CCCOCc3ccccc3)cc2C(=O)N2Cc3ccccc3C[C@H]2CO)n1` [Example 133] are 310 to 360 nM and 410 to 438 nM.
Consider `CCCCN(CCCC)C(=O)c1cc(C)n(-c2ccc(NC(=O)C(C)(C)c3ccccc3)cc2C(=O)N2Cc3ccccc3C[C@H]2CO)n1` [Example 31], for which the figures for the IC50 in assay [1] and in assay [2] were 119 to 144 nM and 132 to 146 nM, respectively.
On the same counts, the results for `CCCCN(CCCC)C(=O)c1cc(C)n(-c2ccc(NC(=O)c3cccc(-c4ccccc4F)c3)cc2C(=O)N2Cc3ccccc3C[C@H]2CO)n1` [Example 140] are 275 to 287 nM and 315 to 343 nM.
On the same counts, the results for `CCCCN(CCCC)C(=O)c1cc(C)n(-c2ccc(NC(=O)Cc3ccc(O)cc3)cc2C(=O)N2Cc3ccccc3C[C@H]2CO)n1` [Example 157] are 64.7 to 75.3 nM and 80.3 to 93.4 nM.
As for `CCCCN(CCCC)C(=O)c1cc(C)n(-c2ccc(NC(=O)C(CC(=O)O)Cc3ccccc3)cc2C(=O)N2Cc3ccccc3C[C@H]2CO)n1` (stereo partly drawn) [Example 15], the IC50 in assay [1] lay in the range of 44.2 to 47.7 nM; in assay [2], 53.4 to 59 nM.
The corresponding values for `CCCCN(CCCC)C(=O)c1cc(C)n(-c2ccc(NC(=O)COc3cccc(OC)c3)cc2C(=O)N2Cc3ccccc3C[C@H]2CO)n1` [Example 22] are 2620 to 3490 nM and 3450 nM.
The corresponding values for `CCCCN(CCCC)C(=O)c1cc(C)n(-c2ccc(NC(=O)COc3ccccc3C#N)cc2C(=O)N2Cc3ccccc3C[C@H]2CO)n1` [Example 66] are 106 to 116 nM and 142 nM.
On the same counts, the results for `CCCCN(CCCC)C(=O)c1cc(C)n(-c2ccc(NC(=O)CCc3nc(-c4ccccc4)no3)cc2C(=O)N2Cc3ccccc3C[C@H]2CO)n1` [Example 60] are 95.2 to 96.7 nM and 111 to 120 nM.
In the case of `CCCCN(CCCC)C(=O)c1cc(C)n(-c2ccc(NC(=O)c3ccccc3Oc3ccccc3)cc2C(=O)N2Cc3ccccc3C[C@H]2CO)n1` [Example 68], the IC50 in assay [1] was in the range of 100 to 103 nM; in assay [2], 122 to 125 nM.
On the same counts, the results for `CCCCN(CCCC)C(=O)c1cc(C)n(-c2ccc(NC(=O)C(CCNC(C)=O)c3ccccc3)cc2C(=O)C2Cc3ccccc3C[C@H]2CO)n1` (stereo partly drawn) [Example 74] are 80.8 to 81.4 nM and 95.1 to 96 nM.
Take `CCCCN(CCCC)C(=O)c1cc(C)n(-c2ccc(NC(=O)c3ccc(-c4ccc(OC)cc4)[nH]c3=O)cc2C(=O)N2Cc3ccccc3C[C@H]2CO)n1` [Example 156]: the IC50 in assay [1] was 1830 to 2380 nM; in assay [2] it was 1740 to 1800 nM.
`CCCCN(CCCC)C(=O)c1cc(C)n(-c2ccc(NC(=O)CCCc3ccc([N+](=O)[O-])cc3)cc2C(=O)N2Cc3ccccc3C[C@H]2CO)n1` [Example 61]: the half-inhibitory concentration (IC50) lay within 229 to 271 nM in assay [1] and 306 to 319 nM in assay [2].
On the same counts, the results for `CCCCN(CCCC)C(=O)c1cc(C)n(-c2ccc(NC(=O)Cc3ccc(OC)c(Cl)c3)cc2C(=O)N2Cc3ccccc3C[C@H]2CO)n1` [Example 96] are 71.2 to 76 nM and 86.2 to 91.5 nM.
The corresponding values for `CCCCN(CCCC)C(=O)c1cc(C)n(-c2ccc(NC(=O)CN3CC(c4ccccc4)CC3=O)cc2C(=O)N2Cc3ccccc3C[C@H]2CO)n1` (stereo partly drawn) [Example 119] are 94 to 98.2 nM and 111 to 112 nM.
With `CCCCN(CCCC)C(=O)c1cc(C)n(-c2ccc(NC(=O)Cc3ccc4ccccc4c3)cc2C(=O)N2Cc3ccccc3C[C@H]2CN)n1` [Example 54], the IC50 was 58.1 to 59.3 nM and 58.9 to 68.8 nM in assay [1]; 66.9 to 67.7 nM and 69.8 to 79.8 nM in assay [2].
On to `CCCCN(CCCC)C(=O)c1cc(C)n(-c2ccc(NC(=O)c3cc4cc(O)ccc4[nH]3)cc2C(=O)N2Cc3ccccc3C[C@H]2CO)n1` [Example 87], for which the values for the IC50 in assay [1] and in assay [2] were 486 to 509 nM and 350 to 375 nM, respectively.
On the same counts, the results for `CCCCN(CCCC)C(=O)c1cc(C)n(-c2ccc(NC(=O)Cc3ccc(Cl)cc3)cc2C(=O)N2Cc3ccccc3C[C@H]2CO)n1` [Example 137] are 69.4 to 74.9 nM and 83 to 92.7 nM.
On the same counts, the results for `CCCCN(CCCC)C(=O)c1cc(C)n(-c2ccc(NC(=O)CCSc3ccc4ccccc4c3)cc2C(=O)N2Cc3ccccc3C[C@H]2CO)n1` [Example 64] are 112 to 133 nM and 138 to 149 nM.
On the same counts, the results for `CCCCN(CCCC)C(=O)c1cc(C)n(-c2ccc(NC(=O)c3cn4ccccc4n3)cc2C(=O)N2Cc3ccccc3C[C@H]2CO)n1` [Example 58] are 204 to 205 nM and 249 to 282 nM.
Turning to `CCCCN(CCCC)C(=O)c1cc(C)n(-c2ccc(NC(=O)COc3ccc(OC)cc3)cc2C(=O)N2Cc3ccccc3C[C@H]2CO)n1` [Example 24], the IC50 fell in the range of 6420 to 8640 nM in assay [1] and 8620 to 11900 nM in assay [2].
As to `CCCCN(CCCC)C(=O)c1cc(C)n(-c2ccc(NC(=O)CNC(=O)c3cccnc3)cc2C(=O)N2Cc3ccccc3C[C@H]2CO)n1` [Example 125], the figures for the IC50 in assay [1] and in assay [2] were 63.5 to 77.5 nM and 88.7 to 103 nM, respectively.
As for `CCCCN(CCCC)C(=O)c1cc(C)n(-c2ccc(NC(=O)Oc3ccccc3)cc2C(=O)N2Cc3ccccc3C[C@H]2CO)n1` [Example 10], the IC50 lay in the range of 283 to 308 nM in assay [1] and 501 to 522 nM in assay [2].
On the same counts, the results for `CCCCN(CCCC)C(=O)c1cc(C)n(-c2ccc(NC(=O)C3(c4ccccc4)CC3)cc2C(=O)N2Cc3ccccc3C[C@H]2CO)n1` [Example 30] are 204 to 240 nM and 252 to 267 nM.
On to `CCCCN(CCCC)C(=O)c1cc(C)n(-c2ccc(NC(=O)C(CC#N)c3ccccc3)cc2C(=O)N2Cc3ccccc3C[C@H]2CO)n1` (stereo partly drawn) [Example 135], for which the IC50 in assay [1] fell in the range of 107 to 111 nM; in assay [2] it was 129 to 140 nM.
On the same counts, the results for `CCCCN(CCCC)C(=O)c1cc(C)n(-c2ccc(NC(=O)CC(=O)O)cc2C(=O)N2Cc3ccccc3C[C@H]2CO)n1` [Example 19] are 241 to 251 nM and 363 to 365 nM.
Take `CCCCN(CCCC)C(=O)c1cc(C)n(-c2ccc(NC(=O)C3Oc4cc5ccccc5cc4O3)cc2C(=O)N2Cc3ccccc3C[C@H]2CO)n1` [Example 67]: the figures for the IC50 in assay [1] and in assay [2] were 43.1 to 46 nM and 48.9 to 52.7 nM, respectively.
With `CCCCN(CCCC)C(=O)c1cc(C)n(-c2ccc(NC(=O)CCc3ccccc3)cc2C(=O)N2Cc3ccccc3C[C@H]2CO)n1` [Example 8], the IC50 lay in the range of 191 to 287 nM in assay [1] and 198 to 260 nM in assay [2].
The corresponding values for `CCCCN(CCCC)C(=O)c1cc(C)n(-c2ccc(NC(=O)c3cnn4cccnc34)cc2C(=O)N2Cc3ccccc3C[C@H]2CO)n1` [Example 107] are 497 to 520 nM and 693 to 748 nM.
On the same counts, the results for `CCCCN(CCCC)C(=O)c1cc(C)n(-c2ccc(NC(=O)[C@H](C)c3ccccc3)cc2C(=O)N2Cc3ccccc3C[C@H]2CO)n1` [Example 113] are 562 to 660 nM and 671 to 708 nM.
The corresponding values for `CCCCN(CCCC)C(=O)c1cc(C)n(-c2ccc(NC(=O)C3CC(=O)N(Cc4ccccc4)C3)cc2C(=O)N2Cc3ccccc3C[C@H]2CO)n1` (stereo partly drawn) [Example 101] are 114 to 150 nM and 130 to 167 nM.
On to `CCCCN(CCCC)C(=O)c1cc(C)n(-c2ccc(NC(=O)c3cccnc3Nc3cccc(C(F)(F)F)c3)cc2C(=O)N2Cc3ccccc3C[C@H]2CO)n1` [Example 150], for which the values for the IC50 in assay [1] and in assay [2] were 597 to 598 nM and 431 to 444 nM, respectively.
Take `CCCCN(CCCC)C(=O)c1cc(C)n(-c2ccc(NC(=O)c3ccccc3COc3ccccc3)cc2C(=O)N2Cc3ccccc3C[C@H]2CO)n1` [Example 92]: the 50% inhibitory concentration (IC50) fell in the range of 1120 to 1180 nM in assay [1] and 1270 to 1350 nM in assay [2].
On the same counts, the results for `CCCCN(CCCC)C(=O)c1cc(C)n(-c2ccc(NC(=O)Cc3ccc(OC)c(OC)c3)cc2C(=O)N2Cc3ccccc3C[C@H]2CO)n1` [Example 136] are 95.4 to 98.2 nM and 119 to 123 nM.
With `CCCCN(CCCC)C(=O)c1cc(C)n(-c2ccc(NC(=O)Cc3nc(-c4ccccc4)oc3C)cc2C(=O)N2Cc3ccccc3C[C@H]2CO)n1` [Example 106], the IC50 in assay [1] lay in the range of 106 to 110 nM; in assay [2], 131 to 140 nM.
On the same counts, the results for `CCCCN(CCCC)C(=O)c1cc(C)n(-c2ccc(NC(=O)c3cccc(Cl)c3O)cc2C(=O)N2Cc3ccccc3C[C@H]2CO)n1` [Example 83] are 65.3 to 69.7 nM and 81.6 to 89.1 nM.
Take `CCCCN(CCCC)C(=O)c1cc(C)n(-c2ccc(NC(=O)c3cc4c(OC)c(OC)ccc4[nH]3)cc2C(=O)N2Cc3ccccc3C[C@H]2CO)n1` [Example 149]: the IC50 in assay [1] lay within 161 to 162 nM; in assay [2], 142 to 164 nM.
As to `CCCCN(CCCC)C(=O)c1cc(C)n(-c2ccc(NC(=O)c3ccc(NS(=O)(=O)Cc4ccccc4)cc3)cc2C(=O)N2Cc3ccccc3C[C@H]2CO)n1` [Example 143], the IC50 in assay [1] lay within 426 to 594 nM; in assay [2], 455 to 539 nM.
Turning to `CCCCN(CCCC)C(=O)c1cc(C)n(-c2ccc(NC(=O)c3nn(C)c4ncccc34)cc2C(=O)N2Cc3ccccc3C[C@H]2CO)n1` [Example 45], the IC50 in assay [1] lay in the range of 499 to 556 nM; in assay [2] it was 689 to 773 nM.
The corresponding values for `CCCCN(CCCC)C(=O)c1cc(C)n(-c2ccc(NC(=O)COC3CCCCC3)cc2C(=O)N2Cc3ccccc3C[C@H]2CO)n1` [Example 128] are 177 to 178 nM and 270 to 272 nM.

The values above are taken from patent publication US20140357633A1, “COMPOUNDS FOR INHIBITING THE INTERACTION OF BCL2 WITH BINDING PARTNERS” (NOVARTIS AG, priority 2011, published 2014).
